# According to patent publication US20230183187A1, “QUINAZOLINE COMPOUNDS AS INHIBITORS OF PREMATURE TERMINATION CODONS” (CENTRE NATIONAL DE LA RECHERCHE SCIENTIFIQUE, priority 2020, published 2023):
# Columns and labels:
# HeLa cells = test: IC50 in HeLa cells; type: cell-based; details: Homo sapiens
# nonsense mutation W1268X = test: pAC99 dual reporter readthrough in HeLa cells, W1268X; type: cell-based, human; details: 24 hours
# Method: (§1) Different compounds of the invention have been tested for their ability to induce readthrough on the nonsense mutation W1268X or R213X in HeLa cells.
# (§2) To this aim the inventors used the pAC99 dual reporter plasmid. This dual reporter is used to quantify stop-codon readthrough through the measurement of luciferase and beta-galactosidase (internal normalisation) activities. Readthrough levels for nonsense mutations were analysed in the presence or absence of tested molecules. Cells are seeded in a 6-well plate. The next day, cells are transfected with the reporter plasmid using the JetPei reagent (Invitrogen). The following day, they are rinsed with fresh medium, with or without readthrough inducers. Cells were harvested 24 hours later, with trypsin—EDTA (Invitrogen), lysed with Glo lysis buffer (Promega) and beta-galactosidase and luciferase activities were assayed as previously described. Readthrough efficiency was estimated by calculating the ratio of luciferase activity to beta-galactosidase activity obtained with the test construct, with normalisation against an in-frame control construct. At least five independent transfection experiments were performed for each assay.
# nonsense mutation R213X = test: pAC99 dual reporter readthrough in HeLa cells, R213X; type: cell-based, human; details: 24 hours
# Method: as §1, §2
# [1] = tested on: p53 (endogenous nonsense mutation R213X) in HDQ-P1 cells; test: Western blot of full-length p53 in HDQ-P1 cells; type: cell-based, human; details: HDQ-P1, 48 h; for production of the full-length p53 (western blot): TLN68 50 μM, TLN236 30 μM, TLN309 40 μM
# Method: HDQ-P1 cells (R213X) were treated with G418 ([…]), or the selected molecules (TLN68 50 μM, TLN1399 50 μM, TLN236 30 μM and TLN309 40 μM), for 48 h. Cells were harvested by treatment with trypsin—EDTA (Invitrogen), lysed in 350 mM NaCl, 50 mM Tris—HCl pH 7.5, 1% NP-40, and protease inhibitor cocktail (Roche) and disrupted by passage through a syringe.
# Total proteins were quantified with Bradford reagent (Biorad) and extracts were denatured by incubation in Laemmli buffer for 5 minutes at 90° C. The inventors subjected 30 μg of total protein from HDQ-1 cells to SDS—PAGE in 4/10% Bis—Tris gels. Proteins were transferred onto nitrocellulose membranes, according to the manufacturer's instructions (Biorad). Membranes were saturated by overnight incubation in 5% skimmed milk powder in PBS, and incubated for 1 hour with the primary monoclonal antibody, DO-1 (N-terminal epitope mapping between amino acid residues 11 and 25 of p53; Santa Cruz Biotechnologies, 1/400) or a monoclonal antibody against mouse actin (Millipore, 1/2000). After three washes in PBS supplemented with 0.1% Tween, the membranes were incubated with the secondary antibody [horseradish peroxidase-conjugated anti-mouse IgG ( 1/2500)] for 45 minutes. The membranes were washed five times and chemiluminescence was detected with ECL Prime Western Blotting Detection Reagents (Amersham, GE Healthcare). The signal was quantified with ImageJ software.
# TP53-R213X mRNA = test: RT-qPCR of mutant p53 mRNA in HDQ-P1 cells; type: cell-based, human; details: HDQ-P1, 48 hours; TLN68 80 μM, TLN309 40 μM; n=3
# Method: For the analysis of mRNA levels for p53 and its transcriptional target genes, Bax, the inventors extracted total RNA from HDQ-P1 cells that had or had not been treated with G418 (400 μM) or TLN68 (80 μM) for 48 hours (RNeasy Mini Kit, Qiagen). The RNA was treated with DNAse I (RNase-free DNase) and quantified with a Nanodrop spectrometer (ThermoScientific). The absence of RNA degradation was confirmed by agarose gel electrophoresis. The first-strand cDNA was synthesized from 2 μg of total RNA, with random primers and the SuperScript II Reverse Transcriptase (Invitrogen), as recommended by the manufacturer. Quantitative PCR was then carried out on equal amounts of the various cDNAs, with a CFX96 thermocycler (Biorad), and the accumulation of products was monitored with the intercalating dye FastStart Universal SYBRGreen Master (ROX) reagent (Roche). The inventors quantified mRNA levels relative to three reference mRNAs: RPL32, Hprt1 and HMBS. In each experiment, results are expressed relative to those for untreated cells, for which the value obtained was set to 1. Relative levels of gene expression were calculated at early stages of PCR, when the amplification was exponential and might, therefore, be correlated with the initial number of copies of the transcript. […] For the quantification of each mRNA, three independent experiments (from biological replicates) were performed in triplicate. […]
# [2] = tested on: TP53 R213X nonsense mutation; test: Dual reporter (lacZ/F-luc, pAC99) stop codon readthrough quantification, R213X, NIH3T3 cells; type: cell-based, mouse; details: 24 h, each drug separately or together
# Description: Complementary oligonucleotides corresponding to TP53 R213X nonsense mutations and 9 nucleotides on both sides are ligated into the pAC99 dual reporter plasmid, as previously described (Premature stop codons involved in muscular dystrophies show a broad spectrum of readthrough efficiencies in response to gentamicin treatment, Bidou et al, Gene Therapy 1 Apr. 2004, 11(7):619-627). This dual reporter is used to quantify stop-codon readthrough through the measurement of luciferase and beta-galactosidase (internal calibration) activities, as previously described (Stahl et al, Versatile vectors to study recoding: conservation of rules between yeast and mammalian cells. Nucleic Acids Res 1995; 23:1557-60). Readthrough levels for nonsense mutations were analysed in the presence or absence of tested molecules. Cells were seeded in a 6-well plate. The next day, cells are transfected with the reporter plasmid in the presence of JetPei reagent (Invitrogen). The following day, they are rinsed with fresh medium, with or without readthrough inducers. […] Readthrough efficiency was estimated by calculating the ratio of luciferase activity to beta-galactosidase activity obtained with the test construct, with normalisation against an in-frame control construct. […]
# [3] = tested on: TP53 nonsense mutation R213X; test: Secreted Metridia luciferase R213X reporter in stable NIH3T3 cell line (HTS); type: cell-based, mouse; details: gentamicin 1.6 mM 24 hours, 7 clones, library molecules 50 μM
# Method: All cells were cultured in DMEM plus GlutaMAX (Invitrogen), except for H1299 cells, which were cultured in RPMI plus GlutaMAX (Invitrogen). The medium was supplemented with 10% foetal calf serum (FCS, Invitrogen) and 100 U/ml penicillin/streptomycin. Cells were kept in a humidified atmosphere containing 5.5% CO2, at 37° C. NIH3T3 cells are embryonic mouse fibroblasts. H1299 is a p53-null cell line established from a human lung carcinoma (provided by the ATCC). HDQ-P1 is homozygous for a nonsense mutation at codon 213 (CGA to TGA) in the p53 gene. This cell line was established from a human primary breast carcinoma and was provided by DSMZ-German collection of microorganisms and cell cultures. In order to generate a stable mammalian cell line the inventors used a secreted Metridia luciferase reporter gene derived from pMetLuc2 (Clonetech). […] Seven neomycin resistant clones were tested for their capacity to express active metridiae after readthrough induction in the presence of 1.6 mM gentamicin during 24 hours. Then 50 μL of culture medium was taken from each well and incubated in the presence of substrate: coelenterazine, according to the conditions recommended by the supplier (Ready-To-Glow Secreted Luciferase Reporter Assay (Clonetech)). The photon emission generated by the reaction was measured in a plate luminometer (Tecan). […]
# dystrophin = details: skeletal muscle of mdx mice, subcutaneous injections (Barton-Davis et al, 1999); cited from earlier work
compound,measurement,setting,value
CCc1nc(NC(=N)N)nc2cc(OC)ccc12 [EC-265],IC50,HeLa cells,60 µM
same,Inducting factor of readthrough as compared to untreated cells (measured on nonsense mutation W1268X),nonsense mutation W1268X,19
same,Inducting factor of readthrough as compared to untreated cells (measured on nonsense mutation R213X),nonsense mutation R213X,40
"CCN(CC)Cc1cc(Nc2ccnc3cc(Cl)ccc23)ccc1O [TLN309, Amodiaquine]",level of induction of full-length p53 compared with G418,[1]; G418 10 and 20 mM,even higher to the one obtained in presence of G418
same,production of the full-length p53 (western blot),[1],stimulate the production of the full-length p53
same,stabilisation of TP53-R213X mRNA relative to untreated,TP53-R213X mRNA,marginal stabilisation
"Cc1nc(NC(=N)N)nc2c(C)c(Br)ccc12 [EC-130, 1-(7-bromo-4,8-dimethylquinazolin-2-yl)guanidine]",IC50,HeLa cells,10 µM
same,Inducting factor of readthrough as compared to untreated cells (measured on nonsense mutation W1268X),nonsense mutation W1268X,21
same,Inducting factor of readthrough as compared to untreated cells (measured on nonsense mutation R213X),nonsense mutation R213X,33
"Cc1nc(NC(=N)N)nc2c(C)c(Cl)ccc12 [EC-335, 1-(7-chloro-4,8-dimethylquinazolin-2-yl)guanidine]",IC50,HeLa cells,10 µM
same,Inducting factor of readthrough as compared to untreated cells (measured on nonsense mutation W1268X),nonsense mutation W1268X,33
same,Inducting factor of readthrough as compared to untreated cells (measured on nonsense mutation R213X),nonsense mutation R213X,38
"COc1ccc2c(C)nc(NC(=N)N)nc2c1 [EC-18, 1-(7-methoxy-4-methylquinazolin-2-yl)guanidine]",IC50,HeLa cells,60 µM
same,Inducting factor of readthrough as compared to untreated cells (measured on nonsense mutation W1268X),nonsense mutation W1268X,69
same,Inducting factor of readthrough as compared to untreated cells (measured on nonsense mutation R213X),nonsense mutation R213X,50
Cc1nc(NC(=N)N)nc2cc(F)ccc12 [EC-11],IC50,HeLa cells,40 µM
same,Inducting factor of readthrough as compared to untreated cells (measured on nonsense mutation W1268X),nonsense mutation W1268X,11
Cc1nc(NC(=N)N)nc2cc(Cl)ccc12 [EC-141],IC50,HeLa cells,40 µM
same,Inducting factor of readthrough as compared to untreated cells (measured on nonsense mutation W1268X),nonsense mutation W1268X,16
COc1cccc2c(C)nc(NC(=N)N)nc12 [EC-30],IC50,HeLa cells,80 µM
same,Inducting factor of readthrough as compared to untreated cells (measured on nonsense mutation W1268X),nonsense mutation W1268X,10
COc1cc(C(=O)OCCCN2CCCN(CCCOC(=O)c3cc(OC)c(OC)c(OC)c3)CC2)cc(OC)c1OC.Cl.Cl [TLN236],production of the full-length p53 (western blot),[1],no protein is revealed
gentamicin,readthrough level,[2],10%
same,induction of Metridia luciferase activity,[3],significant induction
same,restoration of dystrophin levels relative to wild-type animals,dystrophin,10-20%
"Cc1nc(NC(=N)N)nc2c(C)cccc12 [EC-35, 1-(4,8-dimethylquinazolin-2-yl)guanidine]",IC50,HeLa cells,20 µM
same,Inducting factor of readthrough as compared to untreated cells (measured on nonsense mutation W1268X),nonsense mutation W1268X,11
same,Inducting factor of readthrough as compared to untreated cells (measured on nonsense mutation R213X),nonsense mutation R213X,14
"Cc1nc(NC(=N)N)nc2c(C)c(F)ccc12 [EC-288, 1-(7-fluoro-4,8-dimethylquinazolin-2-yl)guanidine]",IC50,HeLa cells,20 µM
same,Inducting factor of readthrough as compared to untreated cells (measured on nonsense mutation W1268X),nonsense mutation W1268X,68
same,Inducting factor of readthrough as compared to untreated cells (measured on nonsense mutation R213X),nonsense mutation R213X,55
Cc1nc(NC(=N)N)nc2cc(Br)ccc12 [EC-85],IC50,HeLa cells,20 µM
same,Inducting factor of readthrough as compared to untreated cells (measured on nonsense mutation W1268X),nonsense mutation W1268X,15
same,Inducting factor of readthrough as compared to untreated cells (measured on nonsense mutation R213X),nonsense mutation R213X,16
